# Measured values reported in patent publication US20250084056A1, “SUBSTITUTED OXOISOINDOLINYL PIPERIDINE-2,6-DIONE COMPOUNDS” (BRISTOL-MYERS SQUIBB COMPANY, priority 2023, published 2025).
# Columns and labels:
# Format in all cases: cell-based
# [1] = system: Phospho-Rb (Ser807/811); assay: Phospho-Retinoblastoma (pRB) Cellular Assay; settings: Homo sapiens, OVCAR-3, NIH OVCAR3 cells, 24 hours; for IC50: concentration giving 50% response; for Emax: maximum response, reference compound at 10 μM = 100%, read-out: pRB Ymax
# Procedure: Phospho-Retinoblastoma (pRB) Cellular Assay
# NIH OVCAR3 (HTB-161, American Type Culture Collection, Manassas VA) cells were grown up to passage 10 in culture media made up of RPMI (11835-030 Gibco, Grand Island NY), 20% HI FBS (16140-071, Gibco, Grand Island NY), and 0.01 mg/mL insulin from bovine pancreas (I6634-1G, Sigma Aldrich, St. Louis, MO).
# The cells were seeded in a 384-well CulturPlate (6007688, Perkin Elmer, Waltham MA) at a density of 10,000 cells/well in 20 μL of the above culture media and incubated overnight at 37° C. and 5% CO2.
# The next day, cells were treated using an Echo 650 (Beckman Coulter, Indianapolis IN) acoustic dispenser with 40 nL of compounds dissolved in DMSO at the appropriate serial dilutions (10 mM to […]). Cells were then incubated for 24 hours as above.
# After 24 hours elapsed, media was removed from each well and shortly after 20 μL of the following mix was added: 12 μL deionized water, 4 μL lysis buffer, 4 μL of reconstituted antibody mix, and 1:100 phosphatase inhibitor. These components belong to the Phospho-Rb (Ser807/811) Cellular Kit (64RBS807PEY, Perkin Elmer, Waltham MA).
# Plates were sealed and incubated away from light at room temperature for at least 4 hours before reading them on an EnVision plate reader (Perkin Elmer, Waltham MA) according to the kit manufacturer's protocol. The reference compound, N-(5-{[(5-tert-butyl-1,3-oxazol-2-yl)methyl]sulfanyl}-1,3-thiazol-2-yl)piperidine-4-carboxamide, at 10 μM was used to define 100% response. Assay results for each compound were reported as IC50, the concentration giving 50% response, and Ymax, the maximum response observed with the compound.
# [2] = target: Cyclin E1 (Homo sapiens, UniProt P24864+Q96SW2); assay: Cyclin E1 Cellular Degradation Assay (MSD); set-up: endogenous in cells; host or cells: OVCAR3; settings: for DC50 / Dmax: Cyclin E1 cellular degradation; for Dmax: maximum degradation; for Ratio of GSPT1 DC50/Cyclin E1 DC50: selectivity for degradation of Cyclin E1 over GSPT1
# Procedure: Culturing cells: On Day 0, OVCAR3 cells were plated at 15,000 cells/well in 40 μL of culture medium (RPMI1640, 20% FBS, 0.01 insulin, 1% Anti/Anti) in a 384 well cell culture plate. Cell cultures were incubated for 24 hours at 37° C. and 5% CO2.
# Coating MSD plates: On Day 1, rabbit anti-CCNE1 antibody (Abcam ab33911, 1 μg/mL in DPBS, […]) was dispensed to a Meso Scale Discovery plate (MSD L21XA). The MSD plate was spun briefly to ensure the solution coated the bottom of the well and incubated overnight at 4° C. On Day 2, the plate was washed 3 times with TBS +0.2% TWEEN, blocked for 1 hour with 3% MSD Blocker A (MSD R93AA-1, 30 μL/well), then washed again 3 times with TBS+0.2% TWEEN.
# Treating and lysing cells: On Day 1, compounds of interest were dispensed into the cell cultures by acoustic dispensing technology. The cell cultures were then spun at 400 g for 4 minutes to disperse the compounds and incubated at 37° C. and 5% CO2 for 24 hours. After incubation, 40 μL of DPBS was added to the cell cultures to dilute the media. All liquid was gently discarded and immediately replaced with 30 μL of lysis buffer (MSD Tris Lysis buffer (MSD R60TX-2), Halt Protease inhibitor (ThermoFisher 78438), Phosphatase Inhibitor II (Sigma-Aldrich P5726), Phosphatase Inhibitor III (Sigma-Aldrich P0044), 0.02M PMSF (Sigma-Aldrich 7626), 0.1% SDS (VWR E719-100ML)). The plate was then sealed, shaken at 300 rpm at room temperature for 5 minutes, and freeze-thawed for optimum cell lysis.
# Collecting data: After thawing, 25 μL of lysate was transferred to a coated MSD plate. The plate was then sealed and shaken at 300 rpm overnight in 4° C. On Day 3, the MSD plate was washed 3 times with TBS+0.2% TWEEN. Mouse anti-CCNE1 antibody (Abcam ab238081, 0.5 μg/mL in 1% MSD Blocker A, 10 μL/well) dispensed to the MSD plate, which was then sealed and shaken at room temperature for 3 hours. After the first antibody incubation, the plate was washed 3 times with TBS+0.2% TWEEN, then goat anti-mouse Sulfo-Tag antibody (MSD R32AC, 1 μg/mL in 1% MSD Blocker A, 10 μL/well) was dispensed to the MSD plate. The plate was sealed again and shaken at room temperature for 1 hour, then washed 3 times with TBS+0.2% TWEEN. After the final wash, 35 μL of 1× Read Buffer (MSD R92TC-1) was added to each well and the data was captured using the MSD plate reader. The reference compound, [2-(2,6-dioxopiperidin-3-yl)-4-methoxy-3-oxo-2,3-dihydro-1H-isoindol-5-yl]methyl N-[4-(3,4-difluorophenoxy)phenyl]carbamate, at […] was used to define […]. Assay results for each compound were reported as DC50, the concentration giving 50% response, and Dmax, the maximum response observed with the compound.
# [3] = target: GSPT1 (Homo sapiens, UniProt P15170+Q96SW2); assay: GSPT1 Cellular Degradation Assay (DF15-GSPT1-ePL); set-up: expressed in transfected cells; settings: DF15-GSPT1-ePL cells, 20 hours
# Text: DF15-GSPT1-ePL was used for intracellular GSPT1 protein degradation detection in form of chemiluminescent signal, which was built on a human DF15 cell line (CVCL_Y429) with conditional co-expression of chimeric GSPT1 (target) and ePL/donor (enhanced ProLabel® by DiscoverX for enzyme fragment complementation with donor-acceptor pairing). The cells used the culture medium in two arrangements for assay and maintenance. During assay, it used Core-RPMI 1640 medium with 10% Fetal Bovine Serum (Heat Inactivated) and 1× Penicillin/Streptomycin; and during passage maintenance, used added ingredients: 0.1 mM NEAA, 1 mM sodium pyruvate, 25 mM Hepes, 0.1% Pluronic F-68, 1× Glutamin, 4 μg/mL Blasticidin (selection agent). Detection was performed on a 1536 well tissue culture plate (Corning #3727) with cells seeded in 3.5 μL core-RPMI 1640 at density of 0.25 million/mL after the pre-titrated test compounds in DMSO on ECHO plate were dispensed onto the assay plate by use of ECHO (liquid handing system via acoustic energy from Labcyte). Assay incubation lasted 20 hours in 37° C. incubator with 5% CO2; then followed by 30 minutes of plate-cooling at room temperature; then detection-reagent-mix was added in 3.5 μL/well with pre-defined proportion of enzyme acceptor, substrate, and lysis buffer. Plate signal reading for luminescence on an EnVision plate reader (PerkinElmer) was conducted after 60 minutes of former step at room temperature. Raw data was collected and processed with Dotmatics (data analyzer) for test compound's potency values. The reference compound, 3-[5-(3,6-dimethoxyisoquinolin-1-yl)-1-oxo-2,3-dihydro-1H-isoindol-2-yl]piperidine-2,6-dione, at […] was used to define 75% response. Assay results for each compound were reported as DC50, the concentration giving 50% response, and Dmax, the maximum response observed with the compound.
# GSPT1, sequence (P15170 whole entry, the tested form may be a part): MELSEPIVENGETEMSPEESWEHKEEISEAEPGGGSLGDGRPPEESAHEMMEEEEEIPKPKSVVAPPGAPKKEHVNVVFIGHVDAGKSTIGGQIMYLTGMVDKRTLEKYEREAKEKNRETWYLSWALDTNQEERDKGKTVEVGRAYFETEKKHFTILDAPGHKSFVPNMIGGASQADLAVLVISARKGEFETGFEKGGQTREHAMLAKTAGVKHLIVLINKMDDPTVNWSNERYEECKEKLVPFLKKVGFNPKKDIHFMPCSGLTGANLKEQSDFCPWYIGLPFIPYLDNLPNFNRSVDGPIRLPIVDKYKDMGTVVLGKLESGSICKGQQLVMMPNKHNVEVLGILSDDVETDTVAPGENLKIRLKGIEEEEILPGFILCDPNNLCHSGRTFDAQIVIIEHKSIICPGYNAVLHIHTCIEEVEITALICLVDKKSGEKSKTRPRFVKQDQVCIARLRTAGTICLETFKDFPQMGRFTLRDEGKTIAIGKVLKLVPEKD
# GSPT1, sequence (Q96SW2 whole entry, the tested form may be a part): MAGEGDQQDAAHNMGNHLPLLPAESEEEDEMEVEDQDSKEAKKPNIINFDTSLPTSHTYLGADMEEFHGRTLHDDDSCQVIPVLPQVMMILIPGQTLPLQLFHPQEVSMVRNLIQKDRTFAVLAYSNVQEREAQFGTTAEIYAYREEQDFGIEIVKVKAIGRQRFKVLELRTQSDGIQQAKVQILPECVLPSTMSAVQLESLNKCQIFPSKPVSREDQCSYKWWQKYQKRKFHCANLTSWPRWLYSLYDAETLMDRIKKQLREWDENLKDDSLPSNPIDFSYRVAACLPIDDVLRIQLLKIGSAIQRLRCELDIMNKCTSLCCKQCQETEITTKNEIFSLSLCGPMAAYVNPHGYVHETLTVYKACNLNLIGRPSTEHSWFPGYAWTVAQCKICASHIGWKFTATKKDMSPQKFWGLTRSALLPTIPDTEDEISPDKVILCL
# GSPT1, sequence (Q16531 whole entry partner, the tested form may be a part): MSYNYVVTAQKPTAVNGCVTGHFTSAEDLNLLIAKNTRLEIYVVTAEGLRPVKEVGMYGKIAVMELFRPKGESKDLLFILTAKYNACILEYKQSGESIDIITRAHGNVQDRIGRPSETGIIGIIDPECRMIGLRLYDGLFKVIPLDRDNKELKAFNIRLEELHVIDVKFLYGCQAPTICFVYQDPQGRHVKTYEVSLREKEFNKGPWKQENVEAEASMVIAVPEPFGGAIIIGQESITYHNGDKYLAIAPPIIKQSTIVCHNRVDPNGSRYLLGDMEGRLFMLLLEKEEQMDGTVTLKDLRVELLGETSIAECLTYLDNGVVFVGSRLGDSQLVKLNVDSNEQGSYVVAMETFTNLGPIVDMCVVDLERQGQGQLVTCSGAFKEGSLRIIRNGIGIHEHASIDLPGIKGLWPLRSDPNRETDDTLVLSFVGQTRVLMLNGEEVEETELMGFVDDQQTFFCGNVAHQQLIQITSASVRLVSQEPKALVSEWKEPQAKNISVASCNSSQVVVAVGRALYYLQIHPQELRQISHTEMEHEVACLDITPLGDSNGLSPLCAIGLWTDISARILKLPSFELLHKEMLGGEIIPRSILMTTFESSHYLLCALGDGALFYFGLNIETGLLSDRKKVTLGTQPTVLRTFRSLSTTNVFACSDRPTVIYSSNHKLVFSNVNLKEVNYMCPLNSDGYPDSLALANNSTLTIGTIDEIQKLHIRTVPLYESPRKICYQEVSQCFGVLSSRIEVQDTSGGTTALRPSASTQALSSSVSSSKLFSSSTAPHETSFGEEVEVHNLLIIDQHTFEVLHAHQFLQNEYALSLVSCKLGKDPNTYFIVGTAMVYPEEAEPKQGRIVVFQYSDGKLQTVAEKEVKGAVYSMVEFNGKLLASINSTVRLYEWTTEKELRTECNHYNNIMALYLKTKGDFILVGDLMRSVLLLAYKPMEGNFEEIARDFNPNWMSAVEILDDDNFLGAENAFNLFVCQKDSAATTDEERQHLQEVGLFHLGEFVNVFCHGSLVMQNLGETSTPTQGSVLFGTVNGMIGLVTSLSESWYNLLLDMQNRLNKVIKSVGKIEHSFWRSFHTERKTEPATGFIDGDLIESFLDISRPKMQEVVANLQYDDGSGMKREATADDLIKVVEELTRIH
# Cyclin E1, sequence (P24864 whole entry): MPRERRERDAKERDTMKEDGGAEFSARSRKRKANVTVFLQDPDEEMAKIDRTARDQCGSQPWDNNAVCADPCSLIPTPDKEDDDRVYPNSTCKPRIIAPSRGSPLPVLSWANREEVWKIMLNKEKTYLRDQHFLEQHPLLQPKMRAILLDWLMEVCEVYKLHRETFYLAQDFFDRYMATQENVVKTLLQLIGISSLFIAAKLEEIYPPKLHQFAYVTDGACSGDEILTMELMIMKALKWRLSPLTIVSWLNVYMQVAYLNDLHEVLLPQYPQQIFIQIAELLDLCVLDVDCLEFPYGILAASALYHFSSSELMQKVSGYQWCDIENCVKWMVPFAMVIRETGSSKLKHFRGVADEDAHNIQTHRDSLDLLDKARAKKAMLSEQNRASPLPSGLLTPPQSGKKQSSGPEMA
# Cyclin E1, sequence (Q96SW2 whole entry): as the sequence (Q96SW2 whole entry, the tested form may be a part) above
# Cyclin E1, sequence (Q16531 whole entry partner): as the sequence (Q16531 whole entry partner, the tested form may be a part) above
IC50 [1] [nM],DC50 [2] [nM],Dmax [2] [%],Ratio of GSPT1 DC50/Cyclin E1 DC50 [2],DC50 [3] [nM],Dmax [3] [%],SMILES,Emax [1] [%]
163,195,103,>72,> 14000,15,"CC(C)Oc1c(COC(=O)Nc2ccc(Oc3ccc(F)cc3Cl)cc2)ccc2c1C(=O)N(C1CCC(=O)NC1=O)C2 (stereo not shown) [Example 124, [2-(2,6-dioxopiperidin-3-yl)-3-oxo-4-(propan-2-yloxy)-2,3-dihydro-1H-isoindol-5-yl]methyl N-[4-(2-chloro-4-fluorophenoxy)phenyl]carbamate]",121
25,75,118,>187,> 14000,2,"CC(C)(O)COc1c(COC(=O)Nc2ccc(Oc3cc(F)cc(F)c3)cc2F)ccc2c1C(=O)N(C1CCC(=O)NC1=O)C2 (stereo not shown) [Example 164, [2-(2,6-dioxopiperidin-3-yl)-4-(2-hydroxy-2-methylpropoxy)-3-oxo-2,3-dihydro-1H-isoindol-5-yl]methyl N-[4-(3,5-difluorophenoxy)-2-fluorophenyl]carbamate]",142
503,184,104,>76,> 14000,19,"O=C1CCC(N2Cc3ccc(COC(=O)Nc4ccc(Oc5ccccc5)cc4)c(OC(F)F)c3C2=O)C(=O)N1 (stereo not shown) [Example 60, [4-(difluoromethoxy)-2-(2,6-dioxopiperidin-3-yl)-3-oxo-2,3-dihydro-1H-isoindol-5-yl]methyl N-(4-phenoxyphenyl)carbamate]",109
3010,648,86,>22,> 14000,38,"COc1c(COC(=O)Nc2ccc(Nc3cccc(F)c3)cc2)ccc2c1C(=O)N(C1CCC(=O)NC1=O)C2 (stereo not shown) [Example 9, [2-(2,6-dioxopiperidin-3-yl)-4-methoxy-3-oxo-2,3-dihydro-1H-isoindol-5-yl]methyl N-{4-[(3-fluorophenyl)amino]phenyl}carbamate]",85
144,112,99,>125,> 14000,10,"O=C1CCC(N2Cc3ccc(COC(=O)Nc4ccc(Oc5ccc(F)cc5F)cc4)c(Oc4ccccc4)c3C2=O)C(=O)N1 (stereo not shown) [Example 67, [2-(2,6-dioxopiperidin-3-yl)-3-oxo-4-phenoxy-2,3-dihydro-1H-isoindol-5-yl]methyl N-[4-(2,4-difluorophenoxy)phenyl]carbamate]",127
83,133,109,>105,> 14000,22,"O=C1CCC(N2Cc3ccc(COC(=O)Nc4ccc(Oc5cccc(F)c5)cc4)c(Oc4ccccc4)c3C2=O)C(=O)N1 (stereo not shown) [Example 64, [2-(2,6-dioxopiperidin-3-yl)-3-oxo-4-phenoxy-2,3-dihydro-1H-isoindol-5-yl]methyl N-[4-(3-fluorophenoxy)phenyl]carbamate]",111
212,128,102,>109,> 14000,36,"CC(C)Oc1c(COC(=O)Nc2ccc(Oc3ccccc3)cc2)ccc2c1C(=O)N(C1CCC(=O)NC1=O)C2 (stereo not shown) [Example 57, [2-(2,6-dioxopiperidin-3-yl)-3-oxo-4-(propan-2-yloxy)-2,3-dihydro-1H-isoindol-5-yl]methyl N-(4-phenoxyphenyl)carbamate]",114
113,159,106,>88,> 14000,19,"CC(C)Oc1c(COC(=O)Nc2ccc(Oc3ccc(F)c(F)c3)cc2)ccc2c1C(=O)N(C1CCC(=O)NC1=O)C2 (stereo not shown) [Example 56, [2-(2,6-dioxopiperidin-3-yl)-3-oxo-4-(propan-2-yloxy)-2,3-dihydro-1H-isoindol-5-yl]methyl N-[4-(3,4-difluorophenoxy)phenyl]carbamate]",127
55,34,112,>418,> 14000,9,"O=C1CCC(N2Cc3ccc(COC(=O)Nc4ccc(Oc5ccc(F)c(F)c5)cc4)c(O[C@@H]4CCCOC4)c3C2=O)C(=O)N1 (stereo partly drawn) [Example 141, [2-(2,6-dioxopiperidin-3-yl)-4-[(3R)-oxan-3-yloxy]-3-oxo-2,3-dihydro-1H-isoindol-5-yl]methyl N-[4-(3,4-difluorophenoxy)phenyl]carbamate]",136
44,179,101,>78,> 14000,20,"NC(=O)COc1c(COC(=O)Nc2ccc(Oc3ccc(F)c(F)c3)cc2)ccc2c1C(=O)N(C1CCC(=O)NC1=O)C2 (stereo not shown) [Example 176, [4-(carbamoylmethoxy)-2-(2,6-dioxopiperidin-3-yl)-3-oxo-2,3-dihydro-1H-isoindol-5-yl]methyl N-[4-(3,4-difluorophenoxy)phenyl]carbamate]",112
